Measured values: ChEMBL document CHEMBL3576838, “Synthesis and in vitro and in vivo biological evaluation of substituted nitroquinoxalin-2-ones and 2,3-diones as novel trichomonacidal agents” (Eur J Med Chem, 2015)

Key:
Trichomonas vaginalis [1] = assay: Trichomonicidal activity against Trichomonas vaginalis JH31A#4 trophozite assessed as inhibition of parasite growth at 10 ug/ml after 24 hrs by resazurin redox dye based fluorimetric microtiter method; assay type: functional; details: JH31A#4, 24 h, read-out: GI
Trichomonas vaginalis [2] = assay: Trichomonicidal activity against Trichomonas vaginalis JH31A#4 trophozite assessed as inhibition of parasite growth at 75 uM after 24 hrs by resazurin redox dye based fluorimetric microtiter method; assay type: functional; details: JH31A#4, 24 h
Trichomonas vaginalis [3] = assay: Trichomonicidal activity against Trichomonas vaginalis JH31A#4 trophozite assessed as inhibition of parasite growth at 150 uM after 24 hrs by resazurin redox dye based fluorimetric microtiter method; assay type: functional; details: JH31A#4, 24 h
Trichomonas vaginalis [4] = assay: Trichomonicidal activity against Trichomonas vaginalis JH31A#4 trophozite assessed as inhibition of parasite growth at 9.37 uM after 24 hrs by resazurin redox dye based fluorimetric microtiter method; assay type: functional; details: JH31A#4, 24 h
Trichomonas vaginalis [5] = assay: Trichomonicidal activity against Trichomonas vaginalis JH31A#4 trophozite assessed as inhibition of parasite growth at 300 uM after 24 hrs by resazurin redox dye based fluorimetric microtiter method; assay type: functional; details: JH31A#4, 24 h
Trichomonas vaginalis [6] = assay: Trichomonicidal activity against Trichomonas vaginalis JH31A#4 trophozite assessed as inhibition of parasite growth after 24 hrs by resazurin redox dye based fluorimetric microtiter method; assay type: functional, organism-based; details: JH31A#4, 24 h
Trichomonas vaginalis [7] = assay: Trichomonicidal activity against Trichomonas vaginalis JH31A#4 trophozite assessed as inhibition of parasite growth at 37.5 uM after 24 hrs by resazurin redox dye based fluorimetric microtiter method; assay type: functional; details: JH31A#4, 24 h
Trichomonas vaginalis [8] = assay: Trichomonicidal activity against Trichomonas vaginalis JH31A#4 trophozite assessed as inhibition of parasite growth at 18.75 uM after 24 hrs by resazurin redox dye based fluorimetric microtiter method; assay type: functional; details: JH31A#4, 24 h
[9] = Selectivity index, ratio of CC50 for African green monkey Vero cells to IC50 for Trichomonas vaginalis JH31A#4 trophozite; assay type: functional
Vero = assay: Cytotoxicity against African green monkey Vero cells at 300 uM after 24 hrs by resazurin redox dye based fluorimetric microtiter method; assay type: cell-based; details: chlorocebus sabaeus
[10] = Cytotoxicity against African green monkey Vero cells assessed as inhibition of cell growth after 24 hrs by resazurin redox dye based fluorimetric microtiter method; details: chlorocebus sabaeus

Structure (SMILES)	inhibition of growth at 10 µg/mL (Trichomonas vaginalis [1])	inhibition at 75 µM (Trichomonas vaginalis [2])	inhibition at 150 µM (Trichomonas vaginalis [3])	inhibition at 9.37 µM (Trichomonas vaginalis [4])	inhibition at 300 µM (Trichomonas vaginalis [5])	IC50 (Trichomonas vaginalis [6])	inhibition at 37.5 µM (Trichomonas vaginalis [7])	inhibition at 18.75 µM (Trichomonas vaginalis [8])	Ratio CC50/IC50 [9]	Activity (Vero)	CC50 at 24 h [10]
O=C1CN(CCCCCl)c2ccc([N+](=O)[O-])cc2N1	73%	–	–	–	–	–	–	–	–	–	–
O=C1CN(CCCO)c2ccc([N+](=O)[O-])cc2N1	–	28.4%	68.1%	3.66%	84%	102 µM	26.6%	4.5%	–	–	–
CCN(CC)CCCN1CC(=O)N(C)c2cc([N+](=O)[O-])ccc21.Cl	–	96.1%	100%	1.8%	100%	32.4 µM	55.5%	14%	38.07	10.81%	1240 µM
Cn1c(=O)c(=O)n(CCCCCCl)c2ccc([N+](=O)[O-])cc21	–	52.2%	66.2%	22.1%	70.2%	61.4 µM	45.7%	40.1%	>10	0%	> 300 µM
Cn1c(=O)c(=O)n(CCCCCBr)c2ccc([N+](=O)[O-])cc21	–	40.9%	42.8%	17.8%	51.1%	256 µM	26.9%	21.5%	–	–	–
Cn1c(=O)c(=O)n(CCCCCl)c2ccc([N+](=O)[O-])cc21	–	36.2%	52.7%	11.8%	68.5%	179 µM	20.1%	19.9%	–	–	–
O=c1[nH]c2cc([N+](=O)[O-])ccc2n(CCCCCl)c1=O	–	21.4%	40.6%	8.25%	94.9%	151 µM	18%	12.7%	–	–	–
Cn1c(=O)c(=O)n(CCCCCCCl)c2ccc([N+](=O)[O-])cc21	–	75.5%	84.7%	31.6%	92.6%	25.4 µM	53.1%	42.1%	>10	14.14%	> 300 µM
Cn1c(=O)c(=O)n(C)c2cc([N+](=O)[O-])ccc21	–	22.5%	35.4%	12.9%	61.4%	235 µM	18.6%	15.8%	–	–	–
O=c1[nH]c2cc([N+](=O)[O-])ccc2n(CCCCCCl)c1=O	–	9.7%	47.1%	0%	94%	147 µM	0.85%	0.42%	–	–	–
CN1C(=O)CN(CCCCCCl)c2ccc([N+](=O)[O-])cc21	73%	–	–	–	–	–	–	–	–	–	–
CN(C)CCN1CC(=O)Nc2cc([N+](=O)[O-])ccc21.Cl	7%	83.7%	96.9%	5.16%	98.5%	36.8 µM	40.8%	28.4%	>10	0%	> 300 µM
O=c1[nH]c2cc([N+](=O)[O-])ccc2n(CCCCCCCl)c1=O	–	45.1%	70.8%	9.43%	95.8%	106 µM	15.1%	17%	–	–	–
CN1C(=O)CN(CCCO)c2ccc([N+](=O)[O-])cc21	–	48.4%	77.2%	6.39%	94.8%	60.7 µM	33.4%	19%	>10	5.07%	> 300 µM
Cn1c(=O)c(=O)[nH]c2cc([N+](=O)[O-])ccc21	–	38.6%	39%	8.89%	41.7%	111 µM	33.7%	17.8%	–	–	–
Cl.O=C1CN(CCN2CCCCC2)c2ccc([N+](=O)[O-])cc2N1	–	78.3%	82.2%	26%	99%	30.7 µM	45.6%	32.7%	>10	1.51%	> 300 µM
O=C1Nc2cc([N+](=O)[O-])ccc2N2CCCOC12 (stereo not drawn)	–	77.4%	92.8%	0.98%	99.5%	41.9 µM	51.3%	12.1%	>10	2.08%	> 300 µM
O=C1CN(CCCCCCl)c2ccc([N+](=O)[O-])cc2N1	73%	–	–	–	–	–	–	–	–	–	–
CCN(CC)CCCN1CC(=O)Nc2cc([N+](=O)[O-])ccc21.Cl	–	59%	64.2%	23.1%	88.6%	38.9 µM	55.5%	28.8%	>10	0.16%	> 300 µM
CN1C(=O)CN(CCCN2CCCCC2)c2ccc([N+](=O)[O-])cc21	7%	28.4%	63.3%	6.97%	99.3%	110 µM	26.6%	18.6%	–	–	–
CN1C(=O)CN(CCN2CCCCC2)c2ccc([N+](=O)[O-])cc21	–	96%	100%	7.8%	100%	29.9 µM	59.6%	13.9%	>10	0%	> 300 µM
O=C1CN(CCCCCCCl)c2ccc([N+](=O)[O-])cc2N1	73%	–	–	–	–	–	–	–	–	–	–
CN1C(=O)CN(CCCCCl)c2ccc([N+](=O)[O-])cc21	73%	–	–	–	–	–	–	–	–	–	–
CN1C(=O)CN(CCCCCCCl)c2ccc([N+](=O)[O-])cc21	94%	–	–	–	–	–	–	–	–	–	–
O=c1[nH]c2cc([N+](=O)[O-])ccc2n(CCCCCBr)c1=O	–	20.1%	49%	0%	79.6%	145 µM	11.6%	4.09%	–	–	–
